{
  "source": "patent US20170137473A1",
  "about": "“FLUOROGEN ACTIVATING AND SHIFTING TAG (FAST)” (PARIS SCIENCES ET LETTRE - QUARTIER LATIN, priority 2014, published 2017)",
  "key": {"HeLa cells": {"test_system": "HeLa cells", "assay": "LIVE/DEAD viability assay (calceinAM, EthD1) of HeLa cells", "assay_type": "cell-based", "details": "incubated 5 h at 5, 10 and 20 μM; concentrations used for imaging", "experimental": "Cell viability was tested by using calceinAM and EthD1 (LIVE/DEAD® viability/cytotoxicity assay kit). CalceinAM is a cell-permeant profluorophore cleaved by intracellular esterases releasing the green fluorescent polyanionic calcein in live cells. EthD1 (Ethidium homodimer 1) is a non cell-permeant nucleic acid red fluorescent stain that enters only cells with damaged membranes and undergoes a fluorescence enhancement upon binding to nucleic acids, thereby producing a bright red fluorescence in dead cells. Control experiments with HeLa cells non-incubated with dye (top left, live control) or incubated for 1 h with 1% hydrogen peroxyde (top right, dead control) are shown. Cell fluorescence was evaluated by confocal microscopy."}, "zebrafish embryos": {"test_system": "zebrafish embryos", "assay": "Fitness of zebrafish embryos incubated with HMBR during development", "assay_type": "in vivo", "details": "incubation from 50% epiboly to 24 hpf; data not shown"}, "[1]": {"test_system": "wild-type bacteria, yeast and mammalian cells", "assay": "Fluorescence background of fluorogen in wild-type cells (flow cytometry, confocal)", "assay_type": "cell-based", "experimental": "(§1) Flow cytometry analysis was performed on an Accuri C6 (BD Biosciences). Confocal micrographs were acquired on a Zeiss LSM 710 Laser Scanning Microscope equipped with a Plan Apochromat 63×/1.4 NA oil immersion objective. ZEN software was used to collect the data. Images were analyzed with Image J. Spinning-disk confocal micrographs were acquired on a Nikon Eclipse Ti microscope equipped with a 4×/0.15 N.A objective and a coolSnap HQ2/CDDcamera (Princeton Instrument). Metamorph premier 7.6 software (Molecular Devices) was used to collect the data.\n(§2) Labeling of Y-FAST with HBR and HMBR in cells was then analyzed by flow cytometry in three different expression systems: yeast, E. coli and mammalian cells (HeLa cells). The fluorescence was compared to wild-type cells or cells expressing wild-type PYP. […] The performance and selectivity of Y-FAST labeling in mammalian cells, yeast and bacteria was furthermore confirmed by confocal microscopy (FIG. 14d and FIGS. 15 c to f and FIG. 16)."}, "wild-type PYP": {"target": "T1, wild-type PYP (Halorhodospira halophila, UniProt P16113, C69G)", "T1 construct": "fusion partner differs by host: Aga2p (yeast surface display, pAG14); His-tag-ENLYFQG (E. coli, pET28a); expressed in transfected cells", "T1 sequence (P16113 whole entry C69G, the tested form may be a part)": "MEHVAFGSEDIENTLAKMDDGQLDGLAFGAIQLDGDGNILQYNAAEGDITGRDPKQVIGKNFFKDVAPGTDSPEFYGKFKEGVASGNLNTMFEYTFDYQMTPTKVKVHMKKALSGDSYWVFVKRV", "assay": "Fluorogen labeling of cells expressing wild-type PYP", "assay_type": "cell-based", "experimental": "as §1, §2"}, "Y-FAST [2]": {"target": "T2, Y-FAST (Halorhodospira halophila, UniProt P16113, C69G/D97P/F96I/M100R/Q99S/T101G/T95M/Y94W/Y98T)", "T2 construct": "expressed in transfected cells; host or cells: HeLa cells, transiently transfected (pAG96, pIRES vector)", "T2 sequence (P16113 whole entry C69G/Y94W/T95M/F96I/D97P/Y98T/Q99S/M100R/T101G)": "as the sequence (P16113 whole entry C69G, the tested form may be a part) above, with Y94W, T95M, F96I, D97P, Y98T, Q99S, M100R, T101G counted along it", "assay": "Labeling of Y-FAST in living cells (yeast, E. coli, HeLa) by flow cytometry", "assay_type": "cell-based", "experimental": "as §1, §2"}, "Y-FAST [3]": {"target": "T2, Y-FAST", "assay_type": "cell-based", "experimental": "FIG. 21 is a set of graphs and images showing that Y-FAST fluorescence can be switched on and off by addition and withdrawal of the fluorogenic ligand. (a,b) HeLa cells expressing mCherry-Y-FAST were grown in a microfluidic channel and repeatedly incubated with HMBR-containing culture medium for 20 s and HMBR-free culture medium for 40 s. A multifunctional fluidic controller enabled several cycles of labeling/unlabeling. […] (a) Confocal timelapse showing two cycles of labeling/unlabeling (Ex/Em 488/493-575 nm). (b) Temporal evolution of the cell fluorescence upon addition (+) and removal (−) of HMBR. (c) Confocal micrographs of live HeLa cells expressing Dronpa-NLS (nucleus) and lyn11-Y-FAST (membrane) showing sequential imaging of nuclear Dronpa and membrane-anchored Y-FAST thanks to sequential on/off labeling of Y-FAST intercalated with on/off photoswitching of Dronpa (Ex/Em 488/493-797 nm). […] Scale bars 10 μm.\nFIG. 22 is a set of graphs and images showing that Y-FAST enables the control of the density of fluorescent labeling independently of the expression level. […] Data represents mean±SD (n=15).\nA rapid prototyping technique has been used for the device fabrication. A digital cutting machine (Graphtec, CE6000) was used to produce a 0.5 mm wide microfluidic channel in a 0.5 mm thick silicone layer, which was supported by a 50 μm thick plastic film. After removing the plastic film and oxygen plasma treatment, the silicone layer was bonded to a 5 mm thick layer of polydimethylsiloxane (PDMS) which was prepared by casting a mixture of A and B components of RTV 615 (GE, France) at a 10:1 w/w ratio on a flat silicon wafer and curing it at 80° C. for 2 h. Then, inlet and outlet holes were punched with a metal tube for connections. Afterward, the silicone-PDMS complex was bonded to a 160 μm thick cover slide after oxygen plasma treatment. Finally, the whole device was put in a 80° C. oven for 10 min. Before cell seeding, the device was sterilized under UV exposure for more than 30 min. […]"}},
  "data": [
    {"smiles": "Cc1cc(/C=C2\\SC(=S)NC2=O)ccc1O", "note": "[HMBR, (Z)-5-(4-hydroxy-3-methylbenzylidene)-2-thioxo-1,3-thiazolidin-4-one]", "values": [
      {"measurement": "toxicity for HeLa cells", "setting": "HeLa cells", "result": "non-toxic"},
      {"measurement": "toxicity for zebrafish embryos (mortality, development)", "setting": "zebrafish embryos", "result": "did not induce any mortality or perturbation in the development"},
      {"measurement": "fluorescence background in wild-type cells", "setting": "[1]", "result": "no or negligible fluorescence background"},
      {"measurement": "binding to wild-type PYP", "setting": "wild-type PYP", "result": "do not bind"},
      {"measurement": "fluorescent labeling of Y-FAST in living cells, comparison", "setting": "Y-FAST [2]", "result": "outperforms HBR"},
      {"measurement": "time of labeling in cells", "setting": "Y-FAST [3]; 5 μM HMBR, microfluidic channel", "result": "within about ten seconds"},
      {"measurement": "concentration sufficient for full labeling in cells", "setting": "Y-FAST [3]; HeLa cells expressing mCherry-Y-FAST", "result": 1, "unit": "µM"},
      {"measurement": "cell permeability", "setting": "Y-FAST [3]; inferred from labeling time in HeLa cells", "result": "good cell permeability"}
    ]}
  ]
}
